The values below come from US8551963B2, “Imidazolothiazole compounds and methods of use thereof” (Ambit Biosciences Corporation, priority 2008, dated 2013).

Data set [1] deals with T1, CYP2C19 (Homo sapiens (Human), UniProt P33261). Description: Cyp enzyme inhibition assay in human liver microsomes, CYP2C19. The format is in vitro ADME. Particulars: CYP2C19, substrate mephenytoin. The method, then: The ability of the compound I-1 to inhibit human metabolizing enzymes CYP3A4, CYP2C9, […], CYP2C19 and CYP1A2, was assessed using those enzymes found collectively in human liver microsomes. The test compound I-1 was prepared as a solution in DMSO or acetonitrile and plated in duplicate rows of a 96-well plate (Nunc) for a final assay concentration of 40 μM in 0.2% DMSO (or 2% acetonitrile) in the first column and serially diluted two-fold going down the row. A known selective inhibitor of a given CYP enzyme listed in Table 8 was selected as the appropriate positive control. For each CYP enzyme inhibition assay, an appropriate enzyme-substrate mixture was prepared to afford a final assay concentration of 75 mM KPO4/pH 7.4, 6.5 mM MgCl2, 0.25 mg/mL pooled male and female human liver microsome (CellzDirect lot HMMC-PL020) with the amounts of the appropriate substrate for each CYP enzyme assay given in Table 8. The enzyme-substrate mixture was added to columns 1 through 10 and column 11 served as a negative control with enzyme solution lacking substrate. A solution of NADPH (Calbiochem) was then added to all rows except for one where NADPH would be added after the incubation period, in order to detect NADPH-independent non-CYP-mediated metabolism. The plate was briefly vortexed and left to shake in a 37° C. water bath for 20 minutes. […]
T1 sequence (P33261 whole entry): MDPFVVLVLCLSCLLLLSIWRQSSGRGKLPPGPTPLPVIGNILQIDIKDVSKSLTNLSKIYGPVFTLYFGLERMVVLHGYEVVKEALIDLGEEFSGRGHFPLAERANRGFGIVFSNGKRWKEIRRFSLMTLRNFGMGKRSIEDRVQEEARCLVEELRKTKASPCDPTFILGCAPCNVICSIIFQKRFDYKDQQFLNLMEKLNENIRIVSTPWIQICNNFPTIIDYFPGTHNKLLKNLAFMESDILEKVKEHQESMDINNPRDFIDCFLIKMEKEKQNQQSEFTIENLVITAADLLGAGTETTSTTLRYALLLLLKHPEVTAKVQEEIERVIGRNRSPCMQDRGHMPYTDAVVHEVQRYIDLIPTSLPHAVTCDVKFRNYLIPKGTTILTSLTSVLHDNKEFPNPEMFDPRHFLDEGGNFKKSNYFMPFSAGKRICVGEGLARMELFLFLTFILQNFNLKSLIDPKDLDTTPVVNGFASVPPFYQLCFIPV
On the technique in general: Microsomes from liver hold many membrane-bound enzymes, among them those of drug oxidation.

A short description of data set [2]: Pharmacokinetic study in rats, intravenous and oral. The format is in vivo. Particulars: rat. The method, then: Rats were dosed either intravenously at 1 mg/kg dose or orally at 10 mg/kg dose with Compound I-1. Blood samples were collected over a 24 hour time-course. The plasma was analyzed for Compound I-1 and the pharmacokinetic parameters were determined.
Pre-catheterized (jugular vein), male Sprague-Dawley rats (230-300 g) obtained from Charles River, Hollister, Calif., were acclimated at the vivarium of Rabbit and Rodent Diagnostic Associates (San Diego, Calif.) for at least three days following delivery and prior to entering a study. Rats were fasted overnight before intravenous or oral dosing. For intravenous dosing, Compound I-1 was dissolved in a 3:1 PEG400:H2O (Water For Injection) solution and administered at a dose of 1 mg/kg. For oral dosing, Compound I-1 was dissolved in a 22% hydroxypropyl-β-cyclodextrin (HPBCD) solution and administered at a dose of 10 mg/kg. Blood was collected at 5 (IV only), 15, 30 min, 1, 2, 4, 6, and 24 hr postdose using K3EDTA as anticoagulant and plasma was harvested for the analysis of Compound I-1.
Plasma samples, calibration standards and quality control samples (20 μL) were extracted with six volumes of acetonitrile containing an internal standard (25 ng/mL) and analyzed using LC-MS/MS analysis (API 3200). Sample separation was achieved on a Zorbax SB C8 column (5 μm, 4.6×50 mm) at a flow rate of 1.6 mL/min. The gradient program was from 5-95% acetonitrile in 0.05% formic acid over one minute. The mass transition from m/z 577.18 to 421.10 was monitored for Compound I-1. The internal standard mass transitions monitored were 483.0 to 317.2.
Pharmacokinetic parameters of Compound I-1 were calculated based on the plasma concentration-time profiles of each animal using the noncompartmental models in WinNonlin v5.2 (Pharsight, Mountain View, Calif.).

Data set [3] addresses T1, CYP2C19. The experiment in a line: Time dependant inhibition in human liver microsomes, CYP2C19. The format is in vitro ADME. As to conditions: CYP2C19, 10 μM, pre-incubation 0-30 minutes. The procedure:
For each CYP isoform tested, 10 μM Compound I-1 was pre-incubated with pooled male and female human liver microsomes with NADPH in a 37° C. shaking water bath in duplicate to afford a final pre-incubation assay concentration of 100 mM KPO4/pH 7.4, 10 mM MgCl2, 2 mg/mL of human liver microsome (CellzDirect lot HLM HMMC-PL020) and 1 mM NADPH (Calbiochem). At each pre-incubation time point (0, 5, 10, 20, and 30 minutes) 20 μL was removed and placed in a second 96 well plate on ice. After all pre-incubation time points were collected 180 uL of additional human microsome liver preparation containing the appropriate CYP specific substrate at its Km concentration listed in Table 11 plus NADPH, was added to each time point. The samples were incubated for an additional 10 minutes in a 37° C. shaking water bath and then quenched with 75:25 acetonitrile (ACN):water containing the appropriate internal standards listed in Table 11. After brief mixing, the plate was centrifuged and the supernatant removed for analysis by LC/MS/MS (API 4000 Qtrap) for the formation of 6-hydroxy-testosterone (CYP3A4), 4-hydroxy-mephenyloin (CYP2C19), or 6-hydroxy-taxol (CYP2C8). […] Consistent with Example 5, Compound I-1 did inhibit CYP2C8-mediated metabolite formation at 10 μM, but not in a time dependent manner.

The target in another data set is FLT3 (D835H) (Homo sapiens (Human), UniProt P36888, D835H). Description: biochemical. The format is binding.
The target in another data set is hERG channel (Homo sapiens (Human), UniProt Q12809). Description: hERG channel inhibition, whole cell recordings in CHO cells. Particulars: 10 μM.
Chain of hERG channel (Q12809 whole entry): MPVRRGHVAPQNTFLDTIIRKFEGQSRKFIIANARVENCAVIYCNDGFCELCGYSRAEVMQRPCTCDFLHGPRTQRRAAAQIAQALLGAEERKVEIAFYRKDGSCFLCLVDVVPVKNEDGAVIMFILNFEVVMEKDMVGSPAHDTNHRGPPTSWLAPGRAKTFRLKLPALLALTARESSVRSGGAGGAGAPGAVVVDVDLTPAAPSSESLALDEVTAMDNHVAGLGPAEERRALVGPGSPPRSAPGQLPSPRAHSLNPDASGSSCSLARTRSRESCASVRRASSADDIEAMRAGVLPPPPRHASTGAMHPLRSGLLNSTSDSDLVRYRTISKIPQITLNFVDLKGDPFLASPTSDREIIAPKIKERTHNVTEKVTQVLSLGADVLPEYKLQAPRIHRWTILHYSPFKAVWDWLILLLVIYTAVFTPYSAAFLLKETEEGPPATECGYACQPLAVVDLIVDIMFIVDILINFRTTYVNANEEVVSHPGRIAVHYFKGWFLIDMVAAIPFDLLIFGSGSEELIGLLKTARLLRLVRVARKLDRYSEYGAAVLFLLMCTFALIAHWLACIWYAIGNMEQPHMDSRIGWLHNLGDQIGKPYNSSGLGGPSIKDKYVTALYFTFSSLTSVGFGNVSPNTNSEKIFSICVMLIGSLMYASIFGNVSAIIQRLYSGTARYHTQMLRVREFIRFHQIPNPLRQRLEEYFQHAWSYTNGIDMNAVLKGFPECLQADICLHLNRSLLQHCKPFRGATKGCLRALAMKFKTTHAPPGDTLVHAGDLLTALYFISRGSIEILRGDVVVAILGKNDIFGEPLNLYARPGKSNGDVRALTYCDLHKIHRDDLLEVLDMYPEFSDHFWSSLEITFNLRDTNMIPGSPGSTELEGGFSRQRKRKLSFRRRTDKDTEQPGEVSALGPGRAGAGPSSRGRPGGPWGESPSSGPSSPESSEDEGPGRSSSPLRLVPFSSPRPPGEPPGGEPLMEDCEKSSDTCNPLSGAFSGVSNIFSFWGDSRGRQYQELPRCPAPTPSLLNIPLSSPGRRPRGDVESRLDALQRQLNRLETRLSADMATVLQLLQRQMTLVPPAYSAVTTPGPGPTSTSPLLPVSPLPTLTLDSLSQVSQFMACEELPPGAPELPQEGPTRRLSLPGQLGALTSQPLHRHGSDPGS
The mark [4] stands for this setting: male, Sprague-Dawley, plasma, intravenous, 1 mg/kg.
The mark [5] stands for this setting: male, Sprague-Dawley, plasma, oral, 10 mg/kg.

Consider `CC(C)(CO)c1cc(NC(=O)Nc2ccc(-c3cn4c(n3)sc3cc(OCCN5CCOCC5)ccc34)cc2)no1` [Compound I-1, 1-[5-(2-hydroxy-1,1-dimethyl-ethyl)-isoxazol-3-yl]-3-{4-[7-(2-morpholin-4-yl-ethoxy)-benzo[d]imidazo[2,1-b]thiazol-2-yl]-phenyl}-urea], for which, at CYP2C19 [1], the IC50 (in general, the concentration that gives 50% inhibition) stood at 15.5 µM. For the same compound, in data set [2] (setting [4]), the AUC(0-inf) (usually total exposure, with the tail of the curve extrapolated) is 3.29 µM·h; the Vd was determined as 1.34 L/kg; the clearance is 8.83 mL/min/kg; the half-life (as a rule, the time in which the quantity being followed falls by half) is 3.4 h. In data set [2] (setting [5]), the AUC(0-inf) came to 2.27 µM·h, the peak level (Cmax) was 360 nM, the Tmax (usually the time from dosing to the highest level) was determined as 1.2 h and the half-life was 3.7 h. Moreover, the bioavailability (in general, the share of a dose that reaches the circulation, judged against a reference dose that is usually intravenous) in data set [2] (male, Sprague-Dawley, plasma, oral, 10 mg/kg, calculated with the dose normalized AUC0-inf IV data, read-out: F (absolute bioavailability)) was 6.9%. In addition, the T1/2 in data set [2] (intravenous, 1 mg/kg) is 3.4 h. The Time dependant inhibition result on CYP2C19 [3] is given as “not a time dependant inhibitor”. For the same compound, at FLT3 (D835H), the Kd (usually the constant that tells how readily two partners part at equilibrium) is 0.0019 µM. On hERG channel, the “% Block Trial 1” value was under 10% and the “% Block Trial 2” value was under 10%.
